Source: patent EP2931723B1, “NEW BICYCLIC COMPOUNDS AND THEIR USE AS ANTIBACTERIAL AGENTS AND -LACTAMASE INHIBITORS” (Fedora Pharmaceuticals Inc., priority 2012, dated 2014)

Tests used:
Experiment in all cases: MIC, antibacterial and synergistic activity
Format in all cases: cell-based
[1] = tested on: K.pneumo JMI 4109; conditions: K.pneumo JMI 4109 (SHV-1, SHV-12); substance alone
[2] = tested on: K. pneumo JMI 2681; conditions: K. pneumo JMI 2681 (Oxa-48 (Cpase))
[3] = tested on: K. pneumo JMI 4088; conditions: K. pneumo JMI 4088 (KPC-3 (Cpase)); substance alone
[4] = tested on: P. aerug JMI 149; conditions: P. aerug JMI 149 (Bla+++D+)
[5] = tested on: E. cloacae JMI 36; conditions: E. cloacae JMI 36 (P99)
[6] = tested on: K. pneumo JMI 2674; conditions: K. pneumo JMI 2674 (CTX-M15 (ESBL)); substance alone
[7] = tested on: E. coli JMI 10767; conditions: E. coli JMI 10767 (Wt)
[8] = tested on: E. coli JMI 10768; conditions: E. coli JMI 10768 (CTX-M15 (Weak ESBL)); Meropenem + inhibitor at 4 µg/mL
[9] = tested on: E. coli JMI 10770; conditions: Escherichia coli, JMI10770; E. coli JMI 10770 (CTX-M15 (Hyper ESBL)); substance alone
[10] = tested on: E. coli JMI 10767; conditions: E. coli JMI 10767 (Wt); remark: listed apart in the source
Experimental: (§1) In the Tables 10 - 12, compounds herein disclosed were tested in combination with various antibiotics against metallo β-lactamase producing bacteria. Table 3: Synergy of the inhibitor Ex. 1 (4 µg/mL) in combination with antibiotics

[11] = tested on: E. coli JMI 10770; conditions: E. coli JMI 10770 (CTX-M15 (Hyper ESBL))
Experimental: as §1

[12] = tested on: E. coli JMI 2665
Experimental: as §1

[13] = tested on: E. coli JMI 10768; conditions: E. coli JMI 10768 (CTX-M15 (Weak ESBL))
Experimental: as §1

[14] = tested on: E. coli JMI 2671
Summary of the method: (§2)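 Synergistic activity: antibiotics tested with inhibitor (4 µg/mL fixed) against strains expressing metallo β-lactamases.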

[15] = tested on: K.pneumo JMI 4109; conditions: K.pneumo JMI 4109 (SHV-1, SHV-12)
Summary of the method: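 Antibacterial synergy was assessed by pairing each inhibitor compound, at a constant concentration of 4 µg/mL, with β-lactam antibiotics. The combinations were run against bacterial strains that produce β-lactamases, and the readout was the minimum inhibitory concentration of the antibiotic in the presence of the inhibitor.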

[16] = tested on: K. pneumo JMI 2674; conditions: K. pneumo JMI 2674 (CTX-M15 (ESBL))
Summary of the method: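 Antibacterial activity was assessed as minimum inhibitory concentrations against a β-lactamase-producing bacterial strain. Each test inhibitor was combined with an antibiotic, with the inhibitor held at a fixed 4 µg/mL, to determine whether it acted synergistically and restored the antibiotic's effect against the resistant organism.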

[17] = tested on: K. pneumo JMI 2699; conditions: K. pneumo JMI 2699 (VIM-1, CTX-M3)
Summary of the method: as §2

[18] = tested on: K. pneumo JMI 4088; conditions: K. pneumo JMI 4088 (KPC-3 (Cpase))
Summary of the method: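 Minimum inhibitory concentrations were measured for antibiotics given together with the test inhibitor, held at 4 µg/mL, against bacteria that produce β-lactamase. The purpose was to see whether the inhibitor restores or boosts antibacterial activity, that is, synergy with the antibiotic.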

[19] = tested on: K. pneumo JMI 4106; conditions: K. pneumo JMI 4106 (KPC-3, TEM-1, SHV-12, SHV-141)
[20] = tested on: E. coli ATCC 25922; conditions: E. coli ATCC 25922 (Wt)
[21] = tested on: P. aerug JMI 2686; conditions: P. aerug JMI 2686 (KPC-2 (Cpase)); substance alone
[22] = tested on: E. coli JMI 11103
[23] = tested on: K. pneumo JMI 2673; conditions: K. pneumo JMI 2673 (CTX-M14 (ESBL)); substance alone
[24] = Aztreonam + inhibitor at 4 µg/mL
[25] = Ceftazidime + inhibitor at 4 µg/mL
[26] = Meropenem + inhibitor at 4 µg/mL

## O=C(NO[C@H]1CCCNC1)[C@@H]1CC[C@@H]2CN1C(=O)N2OS(=O)(=O)O [Ex. 2, (2S,5R)-7-Oxo-N-[(3S)-piperidin-3-yloxy] -6-(sulfooxy)-1,6-diazabicyclo[3.2.1]octane-2-carboxamide]
[1]
  MIC: 16 µg/mL
[2]; [24]
  MIC Aztreonam + inhibitor: 2 µg/mL
[2]; [25]
  MIC Ceftazidime + inhibitor: 1 µg/mL
[2]; [26]
  MIC Meropenem + inhibitor: >2 µg/mL
[2]; substance alone, read-out: MIC
  MIC: > 16 µg/mL
[3]
  MIC: 1 µg/mL
[4]; [24]
  MIC Aztreonam + inhibitor: >4 µg/mL
[4]; [25]
  MIC Ceftazidime + inhibitor: 4 µg/mL
[4]; [26]
  MIC Meropenem + inhibitor: 0.5 µg/mL
[4]; substance alone, read-out: MIC
  MIC: > 16 µg/mL
[5]; [24]
  MIC Aztreonam + inhibitor: 0.125 µg/mL
[5]; [25]
  MIC Ceftazidime + inhibitor: ≤0.25 µg/mL
[5]; [26]
  MIC Meropenem + inhibitor: 0.125 µg/mL
[5]; Enterobacter cloacae, JMI36, substance alone, read-out: MIC
  MIC: > 16 µg/mL
[6]
  MIC: > 16 µg/mL
[7]; [26]
  MIC Meropenem + inhibitor: ≤.031 µg/mL
[7]; Escherichia coli, JMI10767, substance alone
  MIC: 4 µg/mL
[8]
  MIC Meropenem + inhibitor: ≤.031 µg/mL
[9]
  MIC: 4 µg/mL
[10]; [24]
  MIC Aztreonam + inhibitor: ≤.062 µg/mL
[10]; [25]
  MIC Ceftazidime + inhibitor: ≤0.25 µg/mL
[11]; [24]
  MIC Aztreonam + inhibitor: ≤.062 µg/mL
[11]; [25]
  MIC Ceftazidime + inhibitor: ≤0.25 µg/mL
[11]; [26]
  MIC Meropenem + inhibitor: ≤.031 µg/mL
[12]; E. coli JMI 2665 (CMY-2 (Plasmid Cpase)), Aztreonam + inhibitor at 4 µg/mL
  MIC Aztreonam + inhibitor: ≤.062 µg/mL
[12]; E. coli JMI 2665 (CMY-2 (Plasmid Cpase)), Ceftazidime + inhibitor at 4 µg/mL
  MIC Ceftazidime + inhibitor: ≤0.25 µg/mL
[12]; E. coli JMI 2665 (CMY-2 (Plasmid Cpase)), Meropenem + inhibitor at 4 µg/mL
  MIC Meropenem + inhibitor: ≤.031 µg/mL
[12]; Escherichia coli, JMI2665
  MIC: ≤ 0.5 µg/mL
[13]; [24]
  MIC Aztreonam + inhibitor: ≤.062 µg/mL
[13]; [25]
  MIC Ceftazidime + inhibitor: ≤0.25 µg/mL
[13]; Escherichia coli, JMI10768, substance alone
  MIC: 4 µg/mL
[14]; E. coli JMI 2671 (VIM-19 (Cpase)), Aztreonam + inhibitor at 4 µg/mL
  MIC Aztreonam + inhibitor: ≤.062 µg/mL
[14]; E. coli JMI 2671 (VIM-19 (Cpase)), Ceftazidime + inhibitor at 4 µg/mL
  MIC Ceftazidime + inhibitor: 0.5 µg/mL
[14]; E. coli JMI 2671 (VIM-19 (Cpase)), Meropenem + inhibitor at 4 µg/mL
  MIC Meropenem + inhibitor: 0.125 µg/mL
[14]; Escherichia coli, JMI2671, E. coli JMI 2671 (VIM-19 (Cpase)), substance alone
  MIC: > 16 µg/mL
[15]; [24]
  MIC Aztreonam + inhibitor: ≤.062 µg/mL
[15]; [25]
  MIC Ceftazidime + inhibitor: ≤0.25 µg/mL
[15]; [26]
  MIC Meropenem + inhibitor: ≤.031 µg/mL
[16]; [24]
  MIC Aztreonam + inhibitor: 0.125 µg/mL
[16]; [25]
  MIC Ceftazidime + inhibitor: ≤0.25 µg/mL
[16]; [26]
  MIC Meropenem + inhibitor: 0.125 µg/mL
[17]; [24]
  MIC Aztreonam + inhibitor: ≤.062 µg/mL
[17]; [25]
  MIC Ceftazidime + inhibitor: ≤0.25 µg/mL
[17]; [26]
  MIC Meropenem + inhibitor: 0.062 µg/mL
[17]; substance alone, read-out: MIC
  MIC: 4 µg/mL
[18]; [24]
  MIC Aztreonam + inhibitor: 0.5 µg/mL
[18]; [25]
  MIC Ceftazidime + inhibitor: ≤0.25 µg/mL
[18]; [26]
  MIC Meropenem + inhibitor: 0.062 µg/mL
[19]; [24]
  MIC Aztreonam + inhibitor: ≤.062 µg/mL
[19]; [25]
  MIC Ceftazidime + inhibitor: ≤0.25 µg/mL
[19]; [26]
  MIC Meropenem + inhibitor: ≤.031 µg/mL
[19]; substance alone, read-out: MIC
  MIC: > 16 µg/mL
[20]; [24]
  MIC Aztreonam + inhibitor: ≤.062 µg/mL
[20]; [25]
  MIC Ceftazidime + inhibitor: ≤0.25 µg/mL
[20]; [26]
  MIC Meropenem + inhibitor: ≤.031 µg/mL
[20]; Escherichia coli, ATCC25922, substance alone
  MIC: 1 µg/mL
[21]
  MIC: > 16 µg/mL
[22]; E. coli JMI 11103 (CTX-M15 (Intermediate ESBL)), Aztreonam + inhibitor at 4 µg/mL
  MIC Aztreonam + inhibitor: ≤.062 µg/mL
[22]; E. coli JMI 11103 (CTX-M15 (Intermediate ESBL)), Ceftazidime + inhibitor at 4 µg/mL
  MIC Ceftazidime + inhibitor: ≤0.25 µg/mL
[22]; E. coli JMI 11103 (CTX-M15 (Intermediate ESBL)), Meropenem + inhibitor at 4 µg/mL
  MIC Meropenem + inhibitor: ≤.031 µg/mL
[22]; Escherichia coli, JMI11103, E. coli JMI 11103 (CTX-M15 (Intermediate ESBL)), substance alone
  MIC: 4 µg/mL
[23]
  MIC: > 16 µg/mL
